This experiment concerns the target T1, AR-TIF2 PPI (Homo sapiens, UniProt P10275).
T1 construct: AR-LBD residues (662-919) were incorporated into one biosensor; expressed in transfected cells; host or cells: U-2 OS osteosarcoma cells, coinfected with recombinant adenoviruses
T1 sequence (P10275 662-919): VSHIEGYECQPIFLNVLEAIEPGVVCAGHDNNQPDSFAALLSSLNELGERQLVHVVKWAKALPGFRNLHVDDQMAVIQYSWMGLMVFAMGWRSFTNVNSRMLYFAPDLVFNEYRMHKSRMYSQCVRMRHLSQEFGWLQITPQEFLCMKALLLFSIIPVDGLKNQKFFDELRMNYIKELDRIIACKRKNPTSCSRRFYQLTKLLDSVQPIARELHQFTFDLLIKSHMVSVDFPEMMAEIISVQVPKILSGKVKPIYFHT
Briefly: AR-TIF2 PPIB assay, both formats stated jointly. It is filed as cell-based. The settings on record: for Fold reduction in relative potency in both AR-TIF2 PPIB assay formats: analog versus its parent hit; for pIC50: both assay formats, read-out: AR-TIF2 PPI inhibitor/disruptor IC50s. The procedure:
AR-TIF2 Protein-Protein Interaction Biosensor Assay: The AR-TIF2 PPIB HCS assay was performed in U-2 OS osteosarcoma cells as described previously (Fancher et al., Assay Drug Dev Technol. 2016, 14:453-477; Fancher et al., Assay Drug Dev Technol. 2018, 16:297-319; Hua et al., Assay Drug Dev Technol. 2014, 12:395-418; Hua et al., Methods Mol Biol. 2018, 1683:211-227). Briefly, U-2 OS cells were coinfected with recombinant adenovirus biosensor expression constructs and seeded at 2,500 cells per well in 384-well collagen-coated microplates (Greiner Bio-One #781956) and plates were incubated overnight at 37° C. in 5% CO2 and 95% humidity. […] After the appropriate time, assay plates were fixed by transfer of 50 μL of pre-warmed (37° C.) 7.4% formaldehyde and 2 μg/mL Hoechst 33342 in PBS and incubation at room temperature for 30 minutes. Liquid was aspirated, plates were washed twice with 85 μL PBS, leaving the final wash in the plate. Plates were sealed with adhesive aluminum plate seals, and fluorescent images of three fields of view were acquired in the DAPI (Hoechst stained nuclei), FITC (TIF2-GFP) and Texas Red (AR-RFP) channels on an ImageXpress® Micro (IXM) automated HCS platform (Molecular Devices LLC, Sunnyvale, CA) using a 10× Plan Fluor 0.3 NA objective. Images were analyzed using the Translocation Enhanced (TE) image analysis module of the MetaXpress® software (Molecular Devices, LLC, San Jose, CA) as described previously (Fancher et al., Assay Drug Dev Technol. 2016, 14:453-477; Fancher et al., Assay Drug Dev Technol. 2018, 16:297-319; Hua et al., Assay Drug Dev Technol. 2014, 12:395-418; Hua et al., Methods Mol Biol. 2018, 1683:211-227).
A positional AR-TFI2 protein-protein interaction biosensor (PPIB) assay was used to identify small molecules that inhibited DHT-induced formation of AR-TIF2 PPIs and/or disrupted pre-existing AR-TIF2 PPIs (Fancher et al., Assay Drug Dev Technol 2016, 14(8):453-477; Fancher et al., Assay Drug Dev Technol 2018, 16(6):297-319; Hua et al., Assay Drug Dev Technol 2014, 12:395-418; Hua et al., Methods Mol biol 2018, 1683:211-227). AR-LBD residues (662-919) were incorporated into one biosensor and TIF2 residues (725-840) containing the 3rd NR box LXXLL motif into the second interacting biosensor partner (Id.) The AR-TIF2 PPIB recapitulates the orthosteric ligand (OSL)-induced translocation of AR from the cytoplasm into the nucleus where PPIs with TIF2 result in colocalization of both biosensors in the nucleolus. Using three libraries, a total of 143,535 compounds were screened—a 10,000-compound ChemDiv PPI focused diversity library, a 50,000-compound ChemBridge diversity library, and a 83,535-compound library provided by the NCI's Chemical Biology Consortium. The 10K and 50K diversity libraries were subsets of 142K and 810K parent libraries, enabling screening of a representative subset of >1×10^6 compounds. AR-TIF2 PPI inhibitor and disruptor actives were confirmed in the HCS assay and counter screens designed to identify and exclude nuisance/interference or non-selective compounds (Fancher et al., Assay Drug Dev Technol 2018, 16(6):297-319). […] An AR-GFP subcellular localization assay was used to exclude compounds that reduced AR expression and/or restricted its localization to the cytoplasm (Fancher et al., Assay Drug Dev Technol 2018, 16(6):297-319; Johnston et al., Assay Drug Dev Technol 2016, 14:226-239; Masodi et al., Mol Cancer Ther 2017, 16(10):2120-2129). Hits were structurally classified, clustered, and medicinal chemistry computational filters (PAINS/REOS) were used to exclude nuisance compounds and evaluate drug-like properties (Baell, J Med Chem 2010, 53(7):2719-2740; Baell, ACS Chem. Biol. 2018, 13:36-44; Johnston, Curr Opin Chem Biol 2011, 15:174-182; Walters, Adv Drug Deliv Rev 2002, 54:255-271). […]

Here are results for five compounds from patent US20260083751A1, “ALLOSTERIC MODULATORS OF ANDROGEN RECEPTOR COACTIVATOR RECRUITMENT FOR CRPC THERAPY” (University of Pittsburgh – Of the Commonwealth System of …, priority 2022, published 2026).

pIC50: −log10 of the molar value.

Regarding `Cc1nc(N)cc(N2CCOc3c(O)cc(-c4ccccc4C)cc3C2)n1` [Compound S1-2], the “Fold reduction in relative potency in both AR-TIF2 PPIB assay formats” value (“Fold reduction in relative potency” below) is approximately 2 fold.
In the case of `Cc1ccccc1-c1cc(O)c2c(c1)CN(c1cc(N)ncn1)CCO2` [Compound S1-4], the pIC50 was less than 4.00.
As for `COc1cc(-c2ccc(C)s2)cc2c1OCCN(c1nc(C(N)=O)cs1)C2` [Compound S1-5], the “Fold reduction in relative potency” value was 4 fold.
As to `Cc1nsc(NC(=O)N2CCC(Cn3ccnc3)CC2)n1` [Compound S2-7], the pIC50 was less than 4.00.
As to `Cc1c(-c2ccc(F)cc2)[nH]c2ccc(CNC(=O)c3ccc(CO)o3)cc12` [Compound S3-15], the “Fold reduction in relative potency” value is approximately 2 fold.
